The record followed here is patent publication US10689354B2, “Aminoazole derivative” (Teijin Pharma Limited, priority 2015, dated 2020).

The target of the test is T1, androgen receptor (AR-LBD) (Rattus norvegicus, UniProt P15207).
T1 construct: 5 μL of 2×AR-LBD/Fluoromone AL Red Complex contained in the kit; purchased Invitrogen
T1 sequence (P15207 651-882 limits assumed): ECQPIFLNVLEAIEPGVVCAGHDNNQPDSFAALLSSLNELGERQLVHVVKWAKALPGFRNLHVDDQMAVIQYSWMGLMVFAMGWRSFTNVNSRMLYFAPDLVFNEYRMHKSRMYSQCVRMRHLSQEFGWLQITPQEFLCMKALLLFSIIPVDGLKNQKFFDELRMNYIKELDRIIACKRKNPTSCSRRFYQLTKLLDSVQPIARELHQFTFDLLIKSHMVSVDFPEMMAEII
The test can be described thus: Evaluation of androgen receptor affinity (PolarScreen Androgen Receptor Competitor Assay Kit, Red; fluorescence polarization). Conditions: 22° C. for 5 hours, relative to binding rate of 1 μM DHT, read-out: AR affinity (pEC50) (converted). The procedure:
Evaluation of an Androgen Receptor Affinity
To examine the interaction of a compound with an androgen receptor, evaluation was carried out in accordance with the following procedure using PolarScreen™ Androgen Receptor Competitor Assay Kit, Red (Invitrogen). To 2 wells each of a 384 well black plate was added 5 μL of the compound solution. To each well was added 5 μL of 2×AR-LBD/Fluoromone AL Red Complex contained in the kit and the samples were reacted at 22° C. for 5 hours. After 5 hours of the reaction, fluorescence polarization was measured and the affinity was evaluated. The affinity of the compound was determined by comparing to the binding rate of 1 μM of dihydrotestosterone (DHT), and quantified the logarithm value (pEC50) of reciprocal value of the effective concentration of the compound which is equal to 50% of the binding rate by applying a 4 parameter goodness-of-fit calculation.

Each structure is given as a SMILES string.

As for `Cc1ncsc1CCN(c1ccc(C#N)cc1)c1nc(C(=O)NS(C)(=O)=O)c(C)s1` [Compound 136, 2-[4-cyano-N-[2-(4-methylthiazol-5-yl)ethyl]anilino]-5-methyl-N-methylsulfonyl-thiazole-4-carboxamide], the EC50 is above 2000 nM.

With `Cc1sc(N(CCN2CCCC2=O)c2ccc(C#N)cc2)nc1C(=O)NS(C)(=O)=O` [Compound 137, 2-[4-cyano-N-[2-(2-oxopyrrolidin-1-yl)ethyl]anilino]-5-methyl-N-methylsulfonyl-thiazole-4-carboxamide], the EC50 was above 2000 nM. Under `Cc1sc(N(Cc2ccccc2)c2ccc(C#N)cc2Br)nc1C(=O)NS(C)(=O)=O` [Compound 142, 2-(N-benzyl-2-bromo-4-cyano-anilino)-5-methyl-N-methylsulfonyl-thiazole-4-carboxamide] stands 631 nM. With `Cc1noc(C)c1CN(CCc1ccc(Cl)cc1)c1nc(C(=O)NS(C)(=O)=O)c(C)s1` [Compound 151, 2-[2-(4-chlorophenyl)ethyl-[(3,5-dimethylisoxazol-4-yl)methyl]amino]-5-methyl-N-methylsulfonyl-thiazole-4-carboxamide], the EC50 is above 2000 nM. The result for `Cc1sc(N(CCc2c[nH]c3ccccc23)Cc2ccccc2)nc1C(=O)NS(C)(=O)=O` [Compound 320, 2-[benzyl-[2-(1H-indol-3-yl)ethyl]amino]-5-methyl-N-methylsulfonyl-thiazole-4-carboxamide] reads 631 nM; that for `Cc1sc(N(CCc2ccc(C(=O)OC(C)(C)C)cc2)Cc2ccccc2)nc1C(=O)NS(C)(=O)=O` [Compound 327, tert-butyl 4-[2-[benzyl-[5-methyl-4-(methylsulfonylcarbamoyl)thiazol-2-yl]amino]ethyl]benzoate], above 2000 nM. As for `Cc1sc(N(CCc2ccc(C(=O)O)cc2)Cc2ccccc2)nc1C(=O)NS(C)(=O)=O` [Compound 328, 4-[2-[benzyl-[5-methyl-4-(methylsulfonylcarbamoyl)thiazol-2-yl]amino]ethyl]benzoic acid], the EC50 is above 2000 nM. The result for `Cc1sc(N(CCc2cccc(S(C)(=O)=O)c2)Cc2ccccc2)nc1C(=O)NS(C)(=O)=O` [Compound 331, 2-[benzyl-[2-(3-methylsulfonylphenyl)ethyl]amino]-5-methyl-N-methylsulfonyl-thiazole-4-carboxamide] reads above 2000 nM.

Consider `Cc1sc(N(CCc2cccc(OC(F)(F)F)c2)Cc2ccccc2)nc1C(=O)NS(C)(=O)=O` [Compound 332, 2-[benzyl-[2-[3-(trifluoromethoxy)phenyl]ethyl]amino]-5-methyl-N-methylsulfonyl-thiazole-4-carboxamide], for which the EC50 was 398 nM.

In the case of `Cc1sc(N(CCc2ccccn2)Cc2ccccc2)nc1C(=O)NS(C)(=O)=O` [Compound 334, 2-[benzyl-[2-(2-pyridyl)ethyl]amino]-5-methyl-N-methylsulfonyl-thiazole-4-carboxamide], the EC50 was above 2000 nM.

For the molecule `Cc1sc(N(Cc2ccccc2)c2ccc3[nH]ccc3c2)nc1C(=O)NS(C)(=O)=O` [Compound 336, 2-[benzyl(1H-indol-5-yl)amino]-5-methyl-N-methylsulfonyl-thiazole-4-carboxamide], the EC50 is above 2000 nM.

`Cc1sc(N(Cc2ccccc2)c2cccc3c2ccn3C)nc1C(=O)NS(C)(=O)=O` [Compound 337, 2-[benzyl-(1-methylindol-4-yl)amino]-5-methyl-N-methylsulfonyl-thiazole-4-carboxamide]: the EC50 was above 2000 nM.

In the case of `Cc1sc(N(Cc2ccccc2)c2ccc3c(ccn3C)c2)nc1C(=O)NS(C)(=O)=O` [Compound 338, 2-[benzyl-(1-methylindole-5-yl]amino]-5-methyl-N-methylsulfonyl-thiazole-4-carboxamide], the EC50 was above 2000 nM.

As to `Cc1sc(N(CC2CCCCO2)c2ccc(C#N)cc2)nc1C(=O)NS(C)(=O)=O` (centres unmarked) [Compound 345, 2-[4-cyano-N-(tetrahydropyran-2-ylmethyl)anilino]-5-methyl-N-methylsulfonyl-thiazole-4-carboxamide], the EC50 was above 2000 nM.
